Values of other authors as cited in patent US7396658B2, “Methods for screening HIF like ouabain-resistant Na+—K+-ATPase agents” (priority 1998, dated 2008).

Assays:
[1] = target: ouabain-resistant Na^+—K^+-ATPase (Rattus norvegicus, UniProt P06685); conditions: generally needed
[2] = target: T1, ouabain-resistant α1 isoform (obtained from rat kidney) (Rattus norvegicus, UniProt P06685); conditions: α1 from rat kidney vs α2/α3 from rat brain axolemma; factor greater
T1 construct: the ouabain-resistant α1 isoform (obtained from rat kidney); host or cells: rat kidney tissue

## C[C@@H]1O[C@@H](O[C@H]2C[C@@H](O)[C@]3(CO)[C@H]4[C@H](O)C[C@]5(C)[C@@H](C6=CC(=O)OC6)CC[C@]5(O)[C@@H]4CC[C@]3(O)C2)[C@H](O)[C@H](O)[C@H]1O [ouabain]
[1]
  concentration needed to inhibit ouabain-resistant Na+-K+-ATPases relative to that inhibiting ouabain sensitive Na+-K+-ATPase: ≥ 100 fold
[2]
  concentrations of ouabain required for inactivation of the ouabain-resistant α1 isoform, relative to that for inactivating the ouabain-sensitive α2/α3 isoforms: 10^2-10^3
